Laboratory results reported in US20150322067A1, “NITROGEN CONTAINING COMPOUNDS AND THEIR USE” (priority 2011, published 2015).
Read-outs that look alike come from different tables or passages of the source.

Assays:
Test in all cases: Agar dilution MIC (CLSI), beta-lactam with or without beta-lactamase inhibitor
Type in all cases: cell-based
A. baumanni NCTC 13301 = settings: Class D ESBL strain; for MIC of Ceftazidime + inhibitor: Ceftazidime in combination with inhibitor at 4 mcg/ml; for MIC of Meropenem + inhibitor: Meropenem in combination with inhibitor at 4 mcg/ml
Protocol: (§1) The biological activity of representative compounds of the invention against various bacterial strains (in combination with another antibacterial agent) was investigated. In a typical study, overnight grown bacterial cultures were diluted appropriately and inoculated on the agar media containing doubling dilutions of the antibiotics. Observation for growth or no growth was performed after 16-20 hours of incubation at 35±2° C. in ambient air. The overall procedure was performed as per Clinical and Laboratory Standards Institute (CLSI) recommendations (Clinical and Laboratory Standards Institute (CLSI), performance Standards for Antimicrobial Susceptibility Testing, 20th Informational Supplement, M 100-S20, Volume 30, No. 1, 2010). Table 1 details potencies of ceftazidime in combination of representative compound according to the invention (compound of formula (I) wherein M is sodium) against various MDR (Multi Drug Resistant) Gram-negative strains producing Class A, C and D beta-lactamase enzymes. The activities are expressed as MICs (mcg/ml). For comparison, the activity of various other known beta-lactamase inhibitors such as clavulanic acid, tazobactam, MK-7655, and NXL-104 are also provided.
(§2) Table 2 details data corresponding to a combination of Meropenem with a compound of Formula (I), wherein M is sodium, against Class D ESBL producing strains. Class D ESBLs producing pathogens that confer a high degree of resistance to carbapenems are a therapeutic problem in the clinical settings since extremely limited treatment options are available to treat them.

A. baumanni NCTC 13304 = settings: Class D ESBL strain; for MIC of Ceftazidime + inhibitor: Ceftazidime in combination with inhibitor at 4 mcg/ml; for MIC of Meropenem + inhibitor: Meropenem in combination with inhibitor at 4 mcg/ml
Protocol: as §1, §2

A. baumanni NCTC 13305 = settings: Class D ESBL strain; for MIC of Ceftazidime + inhibitor: Ceftazidime in combination with inhibitor at 4 mcg/ml; for MIC of Meropenem + inhibitor: Meropenem in combination with inhibitor at 4 mcg/ml
Protocol: as §1, §2

E. coli NCTC 13352 = settings: Class A ESBL strain; for MIC of Ceftazidime + inhibitor: Ceftazidime in combination with inhibitor at 4 mcg/ml
Protocol: as §1

E. coli NCTC 13351 = settings: Class A ESBL strain; for MIC of Ceftazidime + inhibitor: Ceftazidime in combination with inhibitor at 4 mcg/ml
Protocol: as §1

E. coli B 89 = settings: Class C ESBL strain; for MIC of Ceftazidime + inhibitor: Ceftazidime in combination with inhibitor at 4 mcg/ml
Protocol: as §1

E. coli 7 MP = settings: Class C ESBL strain; for MIC of Ceftazidime + inhibitor: Ceftazidime in combination with inhibitor at 4 mcg/ml
Protocol: as §1

[1] = system: K. pneumoniae ATCC 700603; settings: Class A ESBL strain; for MIC of Ceftazidime + inhibitor: Ceftazidime in combination with inhibitor at 4 mcg/ml
Protocol: as §1

E. coli M 50 = settings: Class C ESBL strain; for MIC of Ceftazidime + inhibitor: Ceftazidime in combination with inhibitor at 4 mcg/ml
Protocol: as §1

[2] = Ceftazidime alone, read-out: MIC of Ceftazidime, Control
[3] = Meropenem alone, read-out: MIC of Meropenem, Control

Row | SMILES | MIC of Ceftazidime + inhibitor (A. baumanni NCTC 13301) [µg/mL] | MIC of Meropenem + inhibitor (A. baumanni NCTC 13301) [µg/mL] | MIC of Ceftazidime + inhibitor (A. baumanni NCTC 13304) [µg/mL] | MIC of Meropenem + inhibitor (A. baumanni NCTC 13304) [µg/mL] | MIC of Ceftazidime + inhibitor (A. baumanni NCTC 13305) [µg/mL] | MIC of Meropenem + inhibitor (A. baumanni NCTC 13305) [µg/mL] | MIC of Ceftazidime + inhibitor (E. coli NCTC 13352) [µg/mL] | MIC of Ceftazidime + inhibitor (E. coli NCTC 13351) [µg/mL] | MIC of Ceftazidime + inhibitor (E. coli B 89) [µg/mL] | MIC of Ceftazidime + inhibitor (E. coli 7 MP) [µg/mL] | MIC of Ceftazidime + inhibitor [1] [µg/mL] | MIC of Ceftazidime + inhibitor (E. coli M 50) [µg/mL] | other results
1 | CC(C)(O/N=C(\C(=O)N[C@@H]1C(=O)N2C(C(=O)[O-])=C(C[n+]3ccccc3)CS[C@H]12)c1csc(N)n1)C(=O)O [Ceftazidime] | – | – | – | – | – | – | – | – | – | – | – | – | MIC (A. baumanni NCTC 13301; [2]): > 32 µg/mL; MIC (A. baumanni NCTC 13304; [2]): > 32 µg/mL; MIC (A. baumanni NCTC 13305; [2]): 16 µg/mL; MIC (E. coli NCTC 13352; Escherichia coli, NCTC13352, Ceftazidime alone, read-out: MIC of Ceftazidime, Control): > 32 µg/mL; MIC (E. coli NCTC 13351; Escherichia coli, NCTC13351, Ceftazidime alone, read-out: MIC of Ceftazidime, Control): 32 µg/mL; MIC (E. coli B 89; Escherichia coli, B89, Ceftazidime alone, read-out: MIC of Ceftazidime, Control): > 32 µg/mL; MIC (E. coli 7 MP; Escherichia coli, 7MP, Ceftazidime alone, read-out: MIC of Ceftazidime, Control): > 32 µg/mL; MIC ([1]; Klebsiella pneumoniae, ATCC700603, Ceftazidime alone, read-out: MIC of Ceftazidime, Control): 32 µg/mL; MIC (E. coli M 50; Escherichia coli, M50, Ceftazidime alone, read-out: MIC of Ceftazidime, Control): > 32 µg/mL
2 | O=C(O)[C@H]1/C(=C/CO)O[C@@H]2CC(=O)N21 [Clavulanic acid, clavulanic acid] | >32 | 32 | >32 | 32 | 16 | 8 | 0.5 | 0.5 | >32 | >32 | 0.5 | >32 | –
3 | O=C(NC1CCNCC1)[C@@H]1CC[C@@H]2CN1C(=O)N2OS(=O)(=O)O [MK 7655] | >32 | 32 | 32 | 32 | 16 | 8 | 8 | 2 | 4 | 8 | 2 | 2 | –
4 | C[C@@H](O)[C@H]1C(=O)N2C(C(=O)O)=C(S[C@@H]3CN[C@H](C(=O)N(C)C)C3)[C@H](C)[C@H]12 [Meropenem] | – | – | – | – | – | – | – | – | – | – | – | – | MIC (A. baumanni NCTC 13301; [3]): 32 µg/mL; MIC (A. baumanni NCTC 13304; [3]): 32 µg/mL; MIC (A. baumanni NCTC 13305; [3]): 8 µg/mL
5 | NC(=O)[C@@H]1CC[C@@H]2CN1C(=O)N2OS(=O)(=O)O [NXL104] | >32 | 16 | 32 | 16 | 16 | 8 | 0.5 | 0.5 | 1 | 4 | 0.5 | 1 | –
6 | N#C[C@@H]1CC[C@@H]2CN1C(=O)N2OS(=O)(=O)[O-].[Na+] [Sodium salt of trans-7-oxo-6-(sulphoxy)-1,6-diazabicyclo[3.2.1]-octane-2-carbonitrile] | 32 | 4 | 32 | 2 | 16 | 2 | 0.5 | 0.5 | 1 | 2 | 0.5 | 1 | –
7 | C[C@]1(Cn2ccnn2)[C@H](C(=O)O)N2C(=O)C[C@H]2S1(=O)=O [Tazobactam, tazobactam] | >32 | 32 | >32 | 32 | 16 | 8 | 1 | 0.5 | >32 | >32 | 1 | >32 | –
